Measurements taken from patent US20230054976A1, “METHODS FOR INHIBITION OF ALPHA-SYNUCLEIN mRNA USING SMALL MOLECULES” (The Scripps Research Institute, priority 2019, published 2023).

Tested on: SNCA mRNA
Assay: ASO-Bind-Map in cells (gapmer ASO, RT-qPCR)
Assay type: cell-based, human
Settings: 200 nM, SH-SY5Y cells, RT-qPCR
Procedure: Mapping Synucleozid's binding site in cells with ASO-Bind-Map. SH-SY5Y cells were treated with vehicle (DMSO) or Synucleozid at 60% confluency overnight and were then transfected with a gapmer ASO (200 nM) with Lipofectamine RNAiMAX (Invitrogen) according to the manufacturer's instructions. Mock samples were generated by treating cells with transfection reagent lacking oligonucleotide. RNA extraction, cDNA synthesis and RT-qPCR were performed as described above after 48 h. Primers for SNCA mRNA in this experiment cover sequences upstream and downstream of the IRE; forward primer: [NT]; reverse primer [NT].

| Substance | reduction of SNCA mRNA levels by gapmer [%] |
| --- | --- |
| 5′-CACTCCCAGT-3′ (2'-MOE phosphorothioate gapmer, further chemistry not given here) [ASO(1-10), reference compound] | ~50 |
| 5′-TCCTTTACACC-3′ (2'-MOE phosphorothioate gapmer, further chemistry not given here) [ASO(29-39), reference compound] | ~50 |
